Data as given in patent publication US10004701B2, “Methods and compositions for treating infection” (UNIVERSITY OF ROCHESTER, priority 2012, dated 2018).
Structures can show the parent of a compound that is named as a salt. Where two headings read alike, the source gives them in different places.

Columns and labels:
Test in all cases: AK assay 384-well format, Prestwick library screening
E. faecium = format: cell-based, Enterococcus faecium; conditions: 50 μM final drug concentration; for fold induction at 50 µM: Enterococcus faecium, 3 h
[1] = tested on: S. aureus strain USA300-0114; format: cell-based, Staphylococcus aureus; conditions: 50 μM final drug concentration; for fold induction at 50 µM: Staphylococcus aureus, USA300, 3 h
K. pneumoniae = format: cell-based, Klebsiella pneumoniae; conditions: 50 μM final drug concentration; for fold induction at 50 µM: Klebsiella pneumoniae, 3 h
[2] = tested on: A. baumannii strain 98-37-09; format: cell-based, Acinetobacter baumannii; conditions: 50 μM final drug concentration; for fold induction at 50 µM: Acinetobacter baumannii, 983709, 3 h
P. aeruginosa = format: cell-based, Pseudomonas aeruginosa; conditions: 50 μM final drug concentration; for fold induction at 50 µM: Pseudomonas aeruginosa, 3 h
E. cloacae = format: cell-based, Enterobacter cloacae; conditions: 50 μM final drug concentration; for fold induction at 50 µM: Enterobacter cloacae, 3 h
E. coli = format: cell-based, Escherichia coli; conditions: 50 μM final drug concentration; for fold induction at 50 µM: Escherichia coli, 3 h
[3] = planktonic E. faecium, positive cutoff 3-fold increase, read-out: AK-based Prestwick library screening result, E. faecium (fold increase in extracellular AK activity)
[4] = planktonic S. aureus, positive cutoff 3-fold increase, read-out: AK-based Prestwick library screening result, S. aureus (fold increase in extracellular AK activity)
[5] = planktonic K. pneumoniae, positive cutoff 3-fold increase, read-out: AK-based Prestwick library screening result, K. pneumoniae (fold increase in extracellular AK activity)
[6] = planktonic A. baumannii, positive cutoff 3-fold increase, read-out: AK-based Prestwick library screening result, A. baumannii (fold increase in extracellular AK activity)
[7] = planktonic P. aeruginosa, positive cutoff 3-fold increase, read-out: AK-based Prestwick library screening result, P. aeruginosa (fold increase in extracellular AK activity)
[8] = planktonic E. cloacae, positive cutoff 3-fold increase, read-out: AK-based Prestwick library screening result, E. cloacae (fold increase in extracellular AK activity)
[9] = planktonic E. coli, […], read-out: AK-based Prestwick library screening result, E. coli (fold increase in extracellular AK activity)
[10] = planktonic, cutoff for positive-scoring molecules 3-fold increase

## COc1cc(-c2ccc(=O)[nH]n2)ccc1OC(F)F [Zardaverine]
E. faecium; [3]
  fold induction at 50 µM: 1
[1]; [4]
  fold induction at 50 µM: 0.6
K. pneumoniae; [5]
  fold induction at 50 µM: 0.7
[2]; [6]
  fold induction at 50 µM: 0.7
P. aeruginosa; [7]
  fold induction at 50 µM: 0.7
E. cloacae; [8]
  fold induction at 50 µM: 0.9
E. coli; [9]
  fold induction at 50 µM: 0.6

## Cc1cn([C@H]2C[C@H](N=[N+]=[N-])[C@@H](CO)O2)c(=O)[nH]c1=O [Zidovudine, AZT]
E. faecium; planktonic E. faecium, cutoff for positive-scoring molecules 3-fold increase
  AK-based Prestwick Library Screening Results, E. faecium (increase in extracellular AK activity): 0.9
[1]; planktonic S. aureus, cutoff for positive-scoring molecules 3-fold increase
  AK-based Prestwick Library Screening Results, S. aureus (increase in extracellular AK activity): 0.6
K. pneumoniae; planktonic K. pneumoniae, cutoff for positive-scoring molecules 3-fold increase
  AK-based Prestwick Library Screening Results, K. pneumoniae (increase in extracellular AK activity): 1.2
[2]; planktonic A. baumannii, cutoff for positive-scoring molecules 3-fold increase
  AK-based Prestwick Library Screening Results, A. baumannii (increase in extracellular AK activity): 1.8
P. aeruginosa; planktonic P. aeruginosa, cutoff for positive-scoring molecules 3-fold increase
  AK-based Prestwick Library Screening Results, P. aeruginosa (increase in extracellular AK activity): 0.6
E. cloacae; planktonic E. cloacae, cutoff for positive-scoring molecules 3-fold increase
  AK-based Prestwick Library Screening Results, E. cloacae (increase in extracellular AK activity): 4.2
E. coli; planktonic E. coli, cutoff for positive-scoring molecules 3-fold increase
  AK-based Prestwick Library Screening Results, E. coli (increase in extracellular AK activity): 2.1

## CN(C)C/C=C(/c1ccc(Br)cc1)c1cccnc1 [Zimelidine dihydrochloride monohydrate]
E. faecium; 384-well format, cutoff for positive-scoring molecules 3-fold increase, read-out: AK-based Prestwick Library Screening Results, E. faecium (increase in extracellular AK activity)
  fold induction at 50 µM: 0.9
[1]; 384-well format, cutoff for positive-scoring molecules 3-fold increase, read-out: AK-based Prestwick Library Screening Results, S. aureus (increase in extracellular AK activity)
  fold induction at 50 µM: 0.8
K. pneumoniae; 384-well format, cutoff for positive-scoring molecules 3-fold increase, read-out: AK-based Prestwick Library Screening Results, K. pneumoniae (increase in extracellular AK activity)
  fold induction at 50 µM: 0.5
[2]; 384-well format, cutoff for positive-scoring molecules 3-fold increase, read-out: AK-based Prestwick Library Screening Results, A. baumannii (increase in extracellular AK activity)
  fold induction at 50 µM: 0.7
P. aeruginosa; 384-well format, cutoff for positive-scoring molecules 3-fold increase, read-out: AK-based Prestwick Library Screening Results, P. aeruginosa (increase in extracellular AK activity)
  fold induction at 50 µM: 0.6
E. cloacae; 384-well format, cutoff for positive-scoring molecules 3-fold increase, read-out: AK-based Prestwick Library Screening Results, E. cloacae (increase in extracellular AK activity)
  fold induction at 50 µM: 0.8
E. coli; 384-well format, cutoff for positive-scoring molecules 3-fold increase, read-out: AK-based Prestwick Library Screening Results, E. coli (increase in extracellular AK activity)
  fold induction at 50 µM: 0.7

## Cc1cc(CC(=O)O)n(C)c1C(=O)c1ccc(Cl)cc1 [Zomepirac sodium salt]
E. faecium; cutoff for positive-scoring molecules 3-fold increase, read-out: AK-based Prestwick Library Screening Results, E. faecium (fold increase in extracellular AK activity)
  fold induction at 50 µM: 1.1
[1]; cutoff for positive-scoring molecules 3-fold increase, read-out: AK-based Prestwick Library Screening Results, S. aureus (fold increase in extracellular AK activity)
  fold induction at 50 µM: 0.9
K. pneumoniae; cutoff for positive-scoring molecules 3-fold increase, read-out: AK-based Prestwick Library Screening Results, K. pneumoniae (fold increase in extracellular AK activity)
  fold induction at 50 µM: 1
[2]; cutoff for positive-scoring molecules 3-fold increase, read-out: AK-based Prestwick Library Screening Results, A. baumannii (fold increase in extracellular AK activity)
  fold induction at 50 µM: 1.1
P. aeruginosa; cutoff for positive-scoring molecules 3-fold increase, read-out: AK-based Prestwick Library Screening Results, P. aeruginosa (fold increase in extracellular AK activity)
  fold induction at 50 µM: 0.9
E. cloacae; cutoff for positive-scoring molecules 3-fold increase, read-out: AK-based Prestwick Library Screening Results, E. cloacae (fold increase in extracellular AK activity)
  fold induction at 50 µM: 1.6
E. coli; cutoff for positive-scoring molecules 3-fold increase, read-out: AK-based Prestwick Library Screening Results, E. coli (fold increase in extracellular AK activity)
  fold induction at 50 µM: 1.1

## OCCN1CCN(CC/C=C2/c3ccccc3Sc3ccc(Cl)cc32)CC1 [Zuclopenthixol hydrochloride]
E. faecium; [3]
  fold induction at 50 µM: 1
[1]; [4]
  fold induction at 50 µM: 0.7
K. pneumoniae; [5]
  fold induction at 50 µM: 1
[2]; [6]
  fold induction at 50 µM: 1.9
P. aeruginosa; [7]
  fold induction at 50 µM: 0.9
E. cloacae; [8]
  fold induction at 50 µM: 1.3
E. coli; planktonic E. coli, positive cutoff 3-fold increase, read-out: AK-based Prestwick library screening result, E. coli (fold increase in extracellular AK activity)
  fold induction at 50 µM: 1.2

## CC1=C2[C@H]3OC(=O)[C@@H](C)[C@@H]3CC[C@@]2(C)C=CC1=O [alpha-Santonin]
E. faecium; planktonic E. faecium, […], read-out: AK-based Prestwick library screening result, E. faecium (fold increase in extracellular AK activity)
  fold induction at 50 µM: 1
[1]; planktonic S. aureus, […], read-out: AK-based Prestwick library screening result, S. aureus (fold increase in extracellular AK activity)
  fold induction at 50 µM: 0.9
K. pneumoniae; planktonic K. pneumoniae, […], read-out: AK-based Prestwick library screening result, K. pneumoniae (fold increase in extracellular AK activity)
  fold induction at 50 µM: 0.7
[2]; planktonic A. baumannii, […], read-out: AK-based Prestwick library screening result, A. baumannii (fold increase in extracellular AK activity)
  fold induction at 50 µM: 0.8
P. aeruginosa; planktonic P. aeruginosa, […], read-out: AK-based Prestwick library screening result, P. aeruginosa (fold increase in extracellular AK activity)
  fold induction at 50 µM: 0.9
E. cloacae; planktonic E. cloacae, […], read-out: AK-based Prestwick library screening result, E. cloacae (fold increase in extracellular AK activity)
  fold induction at 50 µM: 0.9
E. coli; [9]
  fold induction at 50 µM: 0.8

## CC[N+]1(C)[C@@H]2CC[C@H]1CC(OC(=O)[C@@H]1CC[C@@](C(=O)OC3C[C@H]4CC[C@@H](C3)[N+]4(C)CC)(c3ccccc3)c3ccccc31)C2.[Cl-].[Cl-] (stereo partly drawn) [beta-Belladonnine dichloroethylate]
E. faecium; planktonic, […]
  AK-based Prestwick Library Screening Results, E. faecium (fold increase in extracellular AK activity): 1.0
[1]; planktonic, […]
  AK-based Prestwick Library Screening Results, S. aureus (fold increase in extracellular AK activity): 1.3
K. pneumoniae; planktonic, […]
  AK-based Prestwick Library Screening Results, K. pneumoniae (fold increase in extracellular AK activity): 0.9
[2]; planktonic, […]
  AK-based Prestwick Library Screening Results, A. baumannii (fold increase in extracellular AK activity): 1.0
P. aeruginosa; planktonic, […]
  AK-based Prestwick Library Screening Results, P. aeruginosa (fold increase in extracellular AK activity): 1.2
E. cloacae; planktonic, […]
  AK-based Prestwick Library Screening Results, E. cloacae (fold increase in extracellular AK activity): 1.3
E. coli; planktonic, […]
  AK-based Prestwick Library Screening Results, E. coli (fold increase in extracellular AK activity): 1.2

## CC(C)(CO)[C@@H](O)C(=O)NCCC(=O)O [calcium salt monohydrate]
E. faecium; planktonic, cutoff for positive 3-fold increase, read-out: AK-based Prestwick Library Screening Results, E. faecium (fold increase in extracellular AK activity)
  fold induction at 50 µM: 1.1
[1]; planktonic, cutoff for positive 3-fold increase, read-out: AK-based Prestwick Library Screening Results, S. aureus (fold increase in extracellular AK activity)
  fold induction at 50 µM: 1.1
K. pneumoniae; planktonic, cutoff for positive 3-fold increase, read-out: AK-based Prestwick Library Screening Results, K. pneumoniae (fold increase in extracellular AK activity)
  fold induction at 50 µM: 1
[2]; planktonic, cutoff for positive 3-fold increase, read-out: AK-based Prestwick Library Screening Results, A. baumannii (fold increase in extracellular AK activity)
  fold induction at 50 µM: 1.1
P. aeruginosa; planktonic, cutoff for positive 3-fold increase, read-out: AK-based Prestwick Library Screening Results, P. aeruginosa (fold increase in extracellular AK activity)
  fold induction at 50 µM: 1
E. cloacae; planktonic, cutoff for positive 3-fold increase, read-out: AK-based Prestwick Library Screening Results, E. cloacae (fold increase in extracellular AK activity)
  fold induction at 50 µM: 1.4
E. coli; planktonic, cutoff for positive 3-fold increase, read-out: AK-based Prestwick Library Screening Results, E. coli (fold increase in extracellular AK activity)
  fold induction at 50 µM: 1.1

## CC(=O)N(CC(C)C(=O)O)c1c(I)cc(I)c(N)c1I (stereo not drawn) [locetamic acid]
E. faecium; [10]
  AK-based Prestwick Library Screening Results, E. faecium (fold increase in extracellular AK activity): 0.9
[1]; [10]
  AK-based Prestwick Library Screening Results, S. aureus (fold increase in extracellular AK activity): 0.8
K. pneumoniae; [10]
  AK-based Prestwick Library Screening Results, K. pneumoniae (fold increase in extracellular AK activity): 0.8
[2]; [10]
  AK-based Prestwick Library Screening Results, A. baumannii (fold increase in extracellular AK activity): 0.8
P. aeruginosa; [10]
  AK-based Prestwick Library Screening Results, P. aeruginosa (fold increase in extracellular AK activity): 0.9
E. cloacae; [10]
  AK-based Prestwick Library Screening Results, E. cloacae (fold increase in extracellular AK activity): 1.4
E. coli; planktonic, […]
  AK-based Prestwick Library Screening Results, E. coli (fold increase in extracellular AK activity): 0.9
